Tests used:
[1] = target: T1, KIAA1363 (Homo sapiens, UniProt Q6PIU2); experiment: Inhibition of FP-rhodamine labeling of KIAA1363 by JW551 (FIG. 17); format: biochemical; settings: selective over other serine hydrolase enzymes
T1 sequence (Q6PIU2 1-408): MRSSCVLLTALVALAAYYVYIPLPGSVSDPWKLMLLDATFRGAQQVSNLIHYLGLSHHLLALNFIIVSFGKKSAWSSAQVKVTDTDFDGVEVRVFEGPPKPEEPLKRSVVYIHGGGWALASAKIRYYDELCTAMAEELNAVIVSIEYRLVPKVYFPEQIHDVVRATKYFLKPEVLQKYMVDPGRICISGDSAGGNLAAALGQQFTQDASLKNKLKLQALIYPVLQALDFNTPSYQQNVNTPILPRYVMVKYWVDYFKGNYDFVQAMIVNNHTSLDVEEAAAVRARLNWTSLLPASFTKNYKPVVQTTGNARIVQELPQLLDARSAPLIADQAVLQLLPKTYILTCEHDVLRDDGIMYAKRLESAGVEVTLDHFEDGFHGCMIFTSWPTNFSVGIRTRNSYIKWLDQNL

[2] = target: T1, KIAA1363; experiment: 2-acetyl MAGE hydrolytic activity assay in cancer cells treated in situ; format: cell-based; parameters: PC3 cancer cells, which have high endogenous KIAA1363 levels; endogenous in cells; host or cells: PC3 (2-acetyl MAGE assay also DU145 and SKOV3)
Procedure: Cells were pretreated with KIAA1363 inhibitors in situ (for 4 hr in serum-free F-12K media before harvesting cells by scraping) or in vitro (for 30 min at 37° C. in PBS) before addition of 2-acetyl MAGE (100 μM) to cell lysates at room temperature for 30 min in a volume of 200 μL. Reactions were quenched with 600 μL 2:1 chloroform:methanol and 10 nmol of C12:0 MAGE internal standard was added. The organic layer was extracted and 30 μL injected into an Agilent 1100-MSD LC-MS. LC-MS settings were as previously described (Chiang et al., 2006). Product levels (C16:0 MAGE) were quantified in relation to the internal standard. Specific activity was determined during the linear phase of enzymatic reactions (i.e., less than 20% substrate utilized).
Cell lysates (20 μg) in Tris buffer were then incubated with lipid (100 mM, e.g., 2-acetyl MAGE for KIAA1363 activity) at room temperature for 30 min in a volume of 200 ml. Reactions were quenched with 600 ml 2:1 chloroform:methanol and 10 nmol of C12:0 MAGE internal standard was added. […] Product levels (C16:0 MAGE for KIAA1363 activity) were quantified in relation to internal standard levels and standard curves generated between varying lipid concentration versus constant internal standard levels. Specific activity was determined during the linear phase of enzymatic reactions (i.e., less than 20% substrate utilized)

[3] = target: T2, KIAA1363 (Mus musculus, UniProt Q8BLF1); experiment: In vivo labeling of KIAA1363 by JW576 in mouse heart (gel-based ABPP)
T2 construct: ABPP analysis of KIAA1363 activity in mouse brain membrane proteome; from tissue; host or cells: mouse brain (membrane fraction)
T2 sequence (Q8BLF1 1-408): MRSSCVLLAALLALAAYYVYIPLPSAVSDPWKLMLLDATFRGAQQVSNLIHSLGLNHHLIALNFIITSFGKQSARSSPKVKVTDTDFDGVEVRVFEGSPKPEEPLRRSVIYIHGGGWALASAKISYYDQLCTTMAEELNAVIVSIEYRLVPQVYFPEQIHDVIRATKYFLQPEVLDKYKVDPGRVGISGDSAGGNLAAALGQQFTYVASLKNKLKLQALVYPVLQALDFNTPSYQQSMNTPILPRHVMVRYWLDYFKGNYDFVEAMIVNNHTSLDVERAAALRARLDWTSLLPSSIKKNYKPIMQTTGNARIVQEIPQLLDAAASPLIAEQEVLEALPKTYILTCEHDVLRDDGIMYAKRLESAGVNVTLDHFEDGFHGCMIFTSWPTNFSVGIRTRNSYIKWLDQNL
Procedure: (§1) For ABPP experiments, cell lysate and tissue proteomes were treated with 1 μM FP-rhodamine for 30 min at room temperature ([…]). Reactions were quenched with one volume of standard 4×SDS/PAGE loading buffer (reducing), separated by SDS/PAGE (10% acrylamide), and visualized in-gel with a Hitachi FMBio IIe flatbed fluorescence scanner (MiraiBio). For experiments involving a preincubation with JW576 in the presence or absence of the non-fluorescent competitor JW480, the reactions were prepared without FP-rhodamine. JW576 were added at the indicated concentration and incubated for the indicated time at 37° C. FP-rhodamine was then added and the reaction was carried out exactly as described above.
Tissues were dounce-homogenized in PBS, pH 7.5, followed by a low-speed spin (1,400 g, 5 min) to remove debris. The supernatant was then subjected to centrifugation (64,000 g, 45 min) to provide the cytosolic fraction in the supernatant and the membrane fraction as a pellet. The pellet was washed and resuspended in PBS buffer by sonication. Total protein concentration in each fraction was determined using a protein assay kit (Bio-Rad). Samples were stored at −80° C. until use.
JW576 was prepared as a homogenoeus PEG solution by vortexing, sonicating, and gently heating neat compound directly into PEG300 (Fluka) (4 mg ml^−1 final concentration. Male C57BI/6J (<6 months old, 20-28 g) and Male KIAA1363-KO mice were treated with JW576 or a PEG vehicle by intraperitoneal injection. After the indicated amount of time, mice were anesthetized with isoflurane and killed by decapitation. Tissues were removed, flash frozen in liquid N2 and stored at −80° C. prior to processing for ABPP gel analysis as indicated above. Animal experiments were conducted in accordance with the guidelines of the institutional Animal Care and Use Committee of The Scripps Research Institute.

[4] = target: T1, KIAA1363; experiment: Gel-based competitive ABPP of living PC3 cells, in situ treatment; format: cell-based; parameters: PC3 cancer cells, which have high endogenous KIAA1363 levels; endogenous in cells; host or cells: PC3
Procedure: Inhibitors were dissolved in DMSO and diluted into media or buffer prior to cell or proteome treatment, respectively. For in vitro treatment, final DMSO concentration was 4%. For in situ treatments of cells for ABPP, lipid measurements, migration, cell-survival, and invasion assays, 2×10^6 cells were seeded in 6 cm dishes (˜100% confluency) 24 h prior to inhibitor pre-treatment (in DMSO at 0.1% final concentration) in serum-free media (3 mL) for the designated time before harvesting cells for ABPP or lipid measurements or before the initiation of migration, cell-survival, and invasion assays.
For ABPP experiments, cell lysate and tissue proteomes were treated with 1 μM FP-rhodamine for 30 min at room temperature (50 μL total reaction volume) as described previously (Nomura et al., 2010). Reactions were quenched with one volume of standard 4×SDS/PAGE loading buffer (reducing), separated by SDS/PAGE (10% acrylamide), and visualized in-gel with a Hitachi FMBio IIe flatbed fluorescence scanner (MiraiBio). Inhibitors were preincubated prior (30 min or 4 h at 37° C. in vitro or in situ, respectively) to the addition of FP-rhodamine.
JW576 was dissolved in DMSO and diluted into media or buffer prior to cell or proteome treatment, respectively. For in vitro treatment, final DMSO concentration was 4%. For in situ treatments of cells for ABPP, 2×10^6 cells were seeded in 6 cm dishes (100% confluency) 24 hr prior to JW576 pretreatment with or without JW480 (in DMSO at 0.1% final concentration) in serum-free media (3 ml) for the designated time before harvesting cells for ABPP.
as §1

| Compound | IC50 for inhibition of FP-rhodamine labeling of KIAA1363 [1] | IC50 [2] [nM] | Labeling of KIAA1363 in heart ([3]; C57BI/6J mice, 5-40 mg/kg, i.p., 4 hr) | Time to near-maximal in vivo labeling signals ([3]; JW576 10 mg/kg, post-dosing) [min] | KIAA1363 activity in heart by competitive ABPP with FP-Rh ([3]; WT mice, JW576 10 mg/kg, 1 hr) | Selectivity for KIAA1363 in vivo (heart proteome) ([3]; additional 70 kDa protein, likely ES1) | IC50 [4] [nM] | Time to near-complete target modification ([4]; JW576 1 μM, living PC3 cells) | Concentration at which other JW576-protein adducts were observed (trace levels) ([4]; PC3 cells in situ, BODIPY fluorescence scan) [µM] |
| --- | --- | --- | --- | --- | --- | --- | --- | --- | --- |
| CC(C)c1ccccc1OC(=O)NCCOc1ccc2c(C(F)(F)F)cc(=O)oc2c1 [JW551, 2-isopropylphenyl (2-((2-oxo-4-(trifluoromethyl)-2H-chromen-7-yl)oxy)ethyl)carbamate] | low micromolar |  |  |  |  |  |  |  |  |
| CC1=CC(C)=[N+]2C1=Cc1ccc(CCC(=O)NCCNC(=O)Oc3ccccc3C(C)C)n1[B-]2(F)F [JW576, 5,5-difluoro-7-(3-((2-(((2-isopropylphenoxy)carbonyl)amino)ethyl)amino)-3-oxopropyl)-1,3-dimethyl-5H-dipyrrolo[1,2-c:2′,1′-f][1,3,2]diazaborinin-4-ium-5-uide] |  | 150 to 170 | significant labeling | ≤ 30 | substantial reductions | only a single, faint additional probe target | 340 ± 150 | within an hour | ≥ 5 |
